Measurements as given in ChEMBL document CHEMBL1201862, “PubChem BioAssay data set” (2004).
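Interpolation was linear, between the two tested concentrations surrounding the appropriate level; five concentrations were tested over 48 hours in 96-well plates. Here, GI50 denotes the concentration required for 50% inhibition of growth.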 Calls of active or inactive are those of the source. No stated cut-off is given here; in the data, active = GI50 up to about 1.1 µM and inactive = higher.

Columns and labels:
Experiment in all cases: NCI tumour cell line growth inhibition, 48 h
EKVX = test system: EKVX
HOP-62 = test system: HOP-62
HOP-92 = test system: HOP-92
HT-29 = test system: HT-29
KM-20L2 = test system: KM-20L2
LOX IMVI = test system: LOX IMVI
Malme-3M = test system: Malme-3M
NCI-H226 = test system: NCI-H226
NCI-H522 = test system: NCI-H522
OVCAR-3 = test system: OVCAR-3
OVCAR-4 = test system: OVCAR-4
RPMI-8226 = test system: RPMI-8226
RXF 393 = test system: RXF 393
SK-MEL-5 = test system: SK-MEL-5
SR = test system: SR
SW-620 = test system: SW-620
UACC-62 = test system: UACC-62
UO-31 = test system: UO-31

Measured: GI50

CC1OC(CC(=O)O)Cc2c(O)c3c(c(O)c21)C(=O)C=C(C1=CC(=O)c2c(O)c4c(c(O)c2C1=O)CC(CC(=O)O)OC4C)C3=O (stereo not given)
inactive: EKVX 13.5 µM | HOP-62 > 100 µM | HOP-92 24.3 µM | HT-29 18.5 µM | KM-20L2 22.2 µM | LOX IMVI 16.5 µM | Malme-3M 14.5 µM | NCI-H226 50.8 µM | NCI-H522 6.25 µM | OVCAR-3 27 µM | OVCAR-4 17.3 µM | RPMI-8226 12.4 µM | RXF 393 6.14 µM | SK-MEL-5 16.4 µM | SR 3.69 µM | SW-620 7.4 µM | UACC-62 12.8 µM | UO-31 47.2 µM

COc1ccc(C2COc3c(ccc(OC)c3OC)C2=O)cc1OC (stereo not given)
inactive: EKVX > 100 µM | HOP-62 > 100 µM | HOP-92 > 100 µM | HT-29 > 100 µM | KM-20L2 > 100 µM | LOX IMVI > 100 µM | Malme-3M > 100 µM | NCI-H226 > 100 µM | NCI-H522 > 100 µM | OVCAR-3 > 100 µM | OVCAR-4 > 100 µM | RPMI-8226 > 100 µM | RXF 393 > 100 µM | SK-MEL-5 > 100 µM | SR > 100 µM | SW-620 > 100 µM | UACC-62 > 100 µM | UO-31 > 100 µM

O=C1C(c2ccccc2)=C(c2ccccc2)C(c2ccc(-c3ccc(C4=C(c5ccccc5)C(=O)C(c5ccccc5)=C4c4ccccc4)cc3)cc2)=C1c1ccccc1
inactive: EKVX > 100 µM | HOP-62 > 100 µM | HOP-92 > 100 µM | HT-29 > 100 µM | KM-20L2 > 100 µM | LOX IMVI > 100 µM | Malme-3M > 100 µM | NCI-H226 > 100 µM | NCI-H522 > 100 µM | OVCAR-3 > 100 µM | OVCAR-4 > 100 µM | RPMI-8226 46.9 µM | RXF 393 > 100 µM | SK-MEL-5 > 100 µM | SR > 100 µM | SW-620 > 100 µM | UACC-62 > 100 µM | UO-31 > 100 µM

O=c1[nH]c(=O)n(C2CC(O)C(CO)O2)cc1C#Cc1ccc(C(F)(F)F)cc1 (stereo not given)
inactive: EKVX 63.2 µM | HOP-62 > 100 µM | HOP-92 23.9 µM | HT-29 > 100 µM | KM-20L2 > 100 µM | LOX IMVI > 100 µM | Malme-3M > 100 µM | NCI-H226 > 100 µM | NCI-H522 > 100 µM | OVCAR-3 > 100 µM | OVCAR-4 > 100 µM | RPMI-8226 > 100 µM | RXF 393 > 100 µM | SK-MEL-5 > 100 µM | SR > 100 µM | SW-620 > 100 µM | UACC-62 > 100 µM | UO-31 > 100 µM

Cc1cccc(NC(=O)C(=O)Cc2nc3ccccc3nc2O)c1C
inactive: EKVX > 100 µM | HOP-62 > 100 µM | HOP-92 > 100 µM | HT-29 > 100 µM | KM-20L2 > 100 µM | LOX IMVI > 100 µM | Malme-3M > 100 µM | NCI-H226 > 100 µM | NCI-H522 > 100 µM | OVCAR-3 > 100 µM | OVCAR-4 > 100 µM | RXF 393 > 100 µM | SK-MEL-5 > 100 µM | SR > 100 µM | SW-620 > 100 µM | UACC-62 > 100 µM | UO-31 > 100 µM

COc1cc(Br)c(CC2NCCc3cc(OC)c(OC)cc32)cc1OC (stereo not given)
inactive: EKVX > 100 µM | HOP-62 > 100 µM | HOP-92 16.5 µM | HT-29 34 µM | KM-20L2 41.2 µM | Malme-3M 58.5 µM | NCI-H226 32.8 µM | NCI-H522 > 100 µM | OVCAR-3 84.9 µM | OVCAR-4 > 100 µM | RPMI-8226 18.8 µM | SR 50.9 µM | SW-620 > 100 µM | UACC-62 77.4 µM | UO-31 25.7 µM

COC[C@@H]1[C@H]2OC(C)(C)O[C@H]2C(=O)N1C(=O)c1ccc(OC)cc1
inactive: EKVX > 100 µM | HOP-62 > 100 µM | HOP-92 > 100 µM | HT-29 > 100 µM | KM-20L2 > 100 µM | LOX IMVI > 100 µM | Malme-3M > 100 µM | NCI-H226 > 100 µM | NCI-H522 > 71.8 µM | OVCAR-3 > 100 µM | OVCAR-4 > 100 µM | RPMI-8226 > 100 µM | RXF 393 > 100 µM | SK-MEL-5 > 100 µM | SR > 100 µM | SW-620 > 100 µM | UACC-62 > 100 µM | UO-31 > 100 µM

CN(C)CCN(C)CC1COC(C)(C)O1 (stereo not given)
inactive: EKVX > 100 µM | HOP-62 > 100 µM | HOP-92 > 100 µM | HT-29 > 100 µM | KM-20L2 > 100 µM | LOX IMVI > 100 µM | Malme-3M > 100 µM | NCI-H226 > 100 µM | NCI-H522 > 100 µM | OVCAR-3 > 100 µM | OVCAR-4 > 100 µM | RPMI-8226 > 100 µM | RXF 393 > 100 µM | SK-MEL-5 > 100 µM | SR > 100 µM | SW-620 > 100 µM | UACC-62 > 100 µM | UO-31 > 100 µM

CN1CCOC(c2ccccc2)O1 (stereo not given)
inactive: EKVX > 100 µM | HOP-62 > 100 µM | HOP-92 > 100 µM | HT-29 > 100 µM | KM-20L2 > 100 µM | LOX IMVI > 100 µM | Malme-3M > 100 µM | NCI-H226 > 100 µM | NCI-H522 > 100 µM | OVCAR-3 > 100 µM | OVCAR-4 > 100 µM | RPMI-8226 > 100 µM | RXF 393 > 100 µM | SK-MEL-5 > 100 µM | SR > 100 µM | SW-620 > 100 µM | UACC-62 > 100 µM | UO-31 > 100 µM

COc1ccc(C2CC(C)=Nc3c(O)nc(S)nc3N2)cc1 (stereo not given)
inactive: EKVX 22.1 µM | HOP-62 25.4 µM | HOP-92 > 100 µM | HT-29 28.5 µM | KM-20L2 16.7 µM | LOX IMVI 17.4 µM | Malme-3M > 100 µM | NCI-H226 17.2 µM | NCI-H522 16.3 µM | OVCAR-3 22.4 µM | RPMI-8226 22.3 µM | RXF 393 18.8 µM | SK-MEL-5 16.7 µM | SR 25.6 µM | SW-620 5.27 µM | UACC-62 17.4 µM | UO-31 17.9 µM

O=C(CCC(=O)Nc1cccc(Cl)c1)CC(=O)c1ccc(Cl)cc1
inactive: HOP-62 > 100 µM | HOP-92 > 100 µM | HT-29 > 100 µM | KM-20L2 > 100 µM | LOX IMVI > 100 µM | Malme-3M > 100 µM | NCI-H226 > 100 µM | NCI-H522 > 100 µM | OVCAR-3 > 100 µM | OVCAR-4 > 100 µM | RPMI-8226 > 100 µM | SR > 100 µM | SW-620 > 100 µM | UACC-62 > 100 µM | UO-31 > 100 µM
